Patent US20100298300A1, “TRIAZOLOPYRAZINE COMPOUNDS USEFUL FOR THE TREATMENT OF DEGENERATIVE & INFLAMMATORY DISEASES” (priority 2006, published 2010)

Key:
[1] = test system: TNFα release by human PBMCs; test: Cytokine release by LPS stimulated human PBMCs (TNFα ELISA); type: cell-based; details: PBMC, 24 h, Table 5, LPS 1 μg/mL
Experimental: For the assay PBMCs are seeded at 2.5E6 cells/mL in 160 μL in 96-well plates (Nunc). Serial dilution of the test compounds are made first in DMSO (Sigma) and then diluted 50-fold in M199 medium (Gibco) containing 1% heat-inactivated FBS. Compounds are further 1/10 diluted in the assay plates to obtain final DMSO concentration of 0.2%. Cells are preincubated with the compounds for 1 hr at 37° C., 5% CO2. Then, cells are stimulated with LPS (Escherichia coli serotype 026:B6, Cat. No. L2654, Sigma) that is added in a volume of 20 μL to a final concentration of 1 μg/mL and cells are further cultured for 24 hr. The plates are centrifuged and the supernatant is collected and stored at −80° C. until analysis of appropriate dilutions in ELISAs.
After 4 hr incubation at RT, blocking buffer is removed and plates are washed once with PBST (1×PBS with 0.05% Tween-20 (Sigma)). Then, 40 μL of sample is transferred to the ELISA plates and plates are incubated at 4° C. […] After 2 h of incubation at RT, plates are washed as described above and 35 μL/well of a 1/2000 dilution of streptavidin-HRP conjugate (Cat. No. SNN2004, Biosource) in buffer D is added. After 45 min, plates are washed as described above and incubated for 5 min with 50 μL/well BM Chemiluminescence ELISA Substrate POD (Roche). Readout is performed on the Luminoscan Ascent Luminometer (Labsystems) with an integration time of 100 msec delivering raw data (RLU: relative luminescence units). The following controls are included in the experiments, a maximal signal control, in which the cells are activated by LPS but only the 0.2% DMSO vehicle (and thus no compound) is added. […] A minimal signal control is also included in these experiments. Here, cells are not triggered. […] Where compounds are tested at 8 concentrations (1/3 serial dilution), EC50-values can be calculated by curve fitting of the means of the PIN data achieved for a compound at each test concentration.

MAPKAPK5 = molecular target: T1, MAPKAPK5 (Homo sapiens, UniProt Q8IW41); test: MAPKAP-K5 assay (FlashPlate kinase assay)
T1 sequence (Q8IW41 1-471 isoform Q8IW41-2): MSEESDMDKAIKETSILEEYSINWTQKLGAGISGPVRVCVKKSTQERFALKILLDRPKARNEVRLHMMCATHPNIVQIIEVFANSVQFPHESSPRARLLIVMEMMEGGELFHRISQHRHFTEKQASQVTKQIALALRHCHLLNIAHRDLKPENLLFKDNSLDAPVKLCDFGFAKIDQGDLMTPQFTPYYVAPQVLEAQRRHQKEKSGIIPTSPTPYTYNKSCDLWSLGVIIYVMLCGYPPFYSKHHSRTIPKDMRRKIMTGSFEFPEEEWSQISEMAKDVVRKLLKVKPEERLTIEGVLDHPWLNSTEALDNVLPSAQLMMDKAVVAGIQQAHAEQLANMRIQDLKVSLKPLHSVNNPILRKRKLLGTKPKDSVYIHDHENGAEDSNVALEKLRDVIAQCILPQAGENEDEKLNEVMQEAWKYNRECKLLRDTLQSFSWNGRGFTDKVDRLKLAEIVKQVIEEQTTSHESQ

[2] = test system: MMP1 expression by activated primary synovial fibroblasts; test: 'MMP assay': MMP1 expression by complex trigger activated synovial fibroblasts (MMP1 ELISA); type: cell-based; details: Homo sapiens, Fibroblast; Table 3; RASFs, complex trigger, 48 hrs, MMP1 ELISA

Compound	EC50 [1] [µM]	IC50 (MAPKAPK5) [µM]	EC50 [2] [µM]
O=C1NS(=O)(=O)c2cc(-c3cnc(Nc4ccc(N5CCOCC5)cc4)c4ncnn34)ccc21 [Compound 53, 6-[8-(4-Morpholin-4-yl-phenylamino)-[1,2,4]triazolo[1,5-a]pyrazin-5-yl]-1,1-dioxo-1,2-dihydro-1λ^6-benzo[d]isothiazol-3-one]	> 1	> 1	0.501 to 1
CC(C)N1CCN(c2ccc(Nc3ncc(-c4ccc5c(c4)CNC5=O)n4ncnc34)cn2)CC1 [Compound 79, 5-(8-(6-(4-Isopropylpiperazin-1-yl)pyridin-3-ylamino)-[1,2,4]triazolo[1,5-a]pyrazin-5-yl)isoindolin-1-one]	> 1	0.001 to 0.1	0.501 to 1
CC(C)N1CCN(c2ccc(Nc3ncc(-c4csc(C(N)=O)c4)n4ncnc34)cc2)CC1 [Compound 28, 4-(8-(4-(4-Isopropylpiperazin-1-yl)phenylamino)-[1,2,4]triazolo[1,5-a]pyrazin-5-yl)thiophene-2-carboxamide]	> 1	0.001 to 0.1	0.501 to 1
NC(=O)c1ccc(-c2cnc(Nc3ccc(N4CCOCC4)cc3)c3ncnn23)cc1F [Compound 11]	> 1	> 1	0.101 to 0.5
CCc1[nH]ncc1-c1cnc(Nc2ccc(N3CCOCC3)cc2)c2ncnn12 [Compound 52, 5-(5-Ethyl-1H-pyrazol-4-yl)-N-(4-morpholinophenyl)-[1,2,4]triazolo[1,5-a]pyrazin-8-amine]	> 1	> 1	> 1
NC(=O)c1cc(Nc2ncc(-c3cn[nH]c3)n3ncnc23)ccc1N1CCOCC1 [Compound 19, 5-(5-(1H-Pyrazol-4-yl)-[1,2,4]triazolo[1,5-a]pyrazin-8-ylamino)-2-morpholinobenzamide]	> 1	> 1	> 1
CC(C)N1CCN(c2ccc(Nc3ncc(-c4ccc5c(c4)CNC5=O)n4ncnc34)c(Cl)c2)CC1 [Compound 77]	> 1	0.101 to 0.5	> 1
NC(=O)c1cc(-c2cnc(Nc3ccc(N4CCN(CC(F)(F)F)CC4)cc3)c3ncnn23)cs1 [Compound 57, 4-(8-{4-[4-(2,2,2-Trifluoroethyl)piperazin-1-yl]-phenylamino}-[1,2,4]triazolo[1,5-a]pyrazin-5-yl)thiophene-2-carboxylic acid amide]	> 1	0.101 to 0.5	0.101 to 0.5
NC(=O)CN1CCC(c2ccc(Nc3ncc(-c4cn[nH]c4)n4ncnc34)cc2)CC1 [Compound 169, 2-(4-{4-[5-(1H-Pyrazol-4-yl)-[1,2,4]triazolo[1,5-a]pyrazin-8-ylamino]phenyl}-piperidin-1-yl)acetamide]	> 1	0.501 to 1	> 1
NC(=O)c1c(F)cc(-c2cnc(Nc3ccc(N4CCOCC4)cc3)c3ncnn23)cc1F [Compound 14]	> 1	> 1	> 1
c1nc2c(Nc3ccc(N4CCN(CC5CC5)CC4)cc3)ncc(-c3cn[nH]c3)n2n1 [Compound 46, {4-[4-(Cyclopropylmethyl)piperazin-1-yl]phenyl}-[5-(1H-pyrazol-4-yl)-[1,2,4]triazolo[1,5-a]pyrazin-8-yl]amine]	> 1	> 1	> 1
CC(C)N1CCC(c2ccc(Nc3ncc(-c4cn[nH]c4)n4ncnc34)cn2)CC1 [Compound 172]	> 1	> 1	> 1
Nc1nc(-c2ccc(-c3cnc(Nc4ccc(N5CCOCC5)cc4)c4ncnn34)cc2)cs1 [Compound 85]	> 1	> 1	> 1
Cc1[nH]ncc1-c1cnc(Nc2ccc(N3CCN(C)CC3)cc2)c2ncnn12 [Compound 16, 5-(5-Methyl-1H-pyrazol-4-yl)-N-(4-(4-methylpiperazin-1-yl)phenyl)-[1,2,4]triazolo[1,5-a]pyrazin-8-amine]	> 1	> 1	> 1
CC(C)N1CCN(c2ccc(Nc3ncc(-c4ccc5c(c4)CNC5=O)n4ncnc34)cc2Cl)CC1 [Compound 180]	> 1	0.001 to 0.1	> 1
OCc1n[nH]cc1-c1cnc(Nc2ccc(N3CCOCC3)cc2)c2ncnn12 [Compound 70, (4-(8-(4-Morpholinophenylamino)-[1,2,4]triazolo[1,5-a]pyrazin-5-yl)-1H-pyrazol-5-yl)methanol]	> 1	> 1	> 1
O=C1NCc2cc(-c3cnc(NC4CCOCC4)c4ncnn34)ccc21 [Compound 116]	> 1	> 1	> 1
CC(C)N1CCN(c2ccc(Nc3ncc(-c4ccsc4)n4ncnc34)cc2)CC1 [Compound 51, [4-(4-Isopropylpiperazin-1-yl)phenyl]-(5-thiophen-3-yl-[1,2,4]triazolo[1,5-a]pyrazin-8-yl)amine]	> 1	> 1	0.501 to 1
CC(C)N1CCN(c2ccc(Nc3ncc(-c4cc(F)c5c(c4)CNC5=O)n4ncnc34)cc2)CC1 [Compound 108, 7-Fluoro-5-{8-[4-(4-isopropylpiperazin-1-yl)-phenylamino]-[1,2,4]triazolo[1,5-a]pyrazin-5-yl}-2,3-dihydroisoindol-1-one]	> 1	0.001 to 0.1	> 1
NC(=O)c1cc(-c2cnc(Nc3ccc(N4CCN(CC5CC5)CC4)nc3)c3ncnn23)cs1 [Compound 54, 4-{8-[6-(4-[Cyclopropylmethyl]piperazin-1-yl)-pyridin-3-ylamino]-[1,2,4]triazolo[1,5-a]pyrazin-5-yl}thiophene-2-carboxylic acid amide]	0.501 to 1	0.101 to 0.5	0.101 to 0.5
FC(F)(F)c1cc(Nc2ncc(-c3cn[nH]c3)n3ncnc23)ccc1N1CCOCC1 [Compound 25]	> 1	> 1	> 1
Nc1ncc(-c2cnc(Nc3ccc(N4CCOCC4)cc3)c3ncnn23)cn1 [Compound 78]	0.501 to 1	> 1	> 1
c1nc2c(Nc3ccc(N4CCN(C5CC5)CC4)nc3)ncc(-c3cn[nH]c3)n2n1 [Compound 60, [6-(4-Cyclopropylpiperazin-1-yl)pyridin-3-yl]-[5-(1H-pyrazol-4-yl)-[1,2,4]triazolo[1,5-a]pyrazin-8-yl]amine]	> 1	> 1	> 1
CN1CCN(c2ccc(Nc3ncc(-c4cc[nH]c(=O)c4)n4ncnc34)cc2)CC1 [Compound 4, 4-(8-(4-(4-methylpiperazin-1-yl)phenylamino)-[1,2,4]triazolo[1,5a]pyrazin-5-yl)pyridin-2(1H)-one]	> 1	> 1	> 1
CC(C)N1CCN(c2ccc(Nc3ncc(-c4csc5c(C(N)=O)cccc45)n4ncnc34)cc2)CC1 [Compound 81, 3-{8-[4-(4-Isopropylpiperazin-1-yl)phenylamino]-[1,2,4]triazolo[1,5-a]pyrazin-5-yl}benzo[b]thiophene-7-carboxylic acid amide]	> 1	> 1	> 1
c1nc2c(Nc3ccc(N4CCOCC4)nc3)ncc(-c3cn[nH]c3)n2n1 [Compound 41, (6-[Morpholin-4-yl]pyridin-3-yl)-[5-(1H-pyrazol-4-yl)-[1,2,4]triazolo[1,5-a]pyrazin-8-yl]amine]	> 1	> 1	> 1
CNC(=O)c1nc(-c2cnc(Nc3ccc(N4CCOCC4)cc3)c3ncnn23)cs1 [Compound 73, 4-[8-(4-Morpholin-4-yl-phenylamino)-[1,2,4]triazolo[1,5-a]pyrazin-5-yl]-thiazole-2-carboxylic acid methylamide]	> 1	> 1	> 1
